Assay results taken from BindingDB's records for patent WO2022112919 (Pfizer, 2022).

Tests used:
[1] = target: T1, Transthyretin (Homo sapiens, UniProt P02766); assay: Binding of Examples to Transthyretin - EC50 Determination
Description: TTR SPA binding assays were performed in a final volume of 60 mI containing 100 ng human TTR (biotinylated recombinant protein) coupled to 25 pg SPA beads (streptavidin coated, Perkin Elmer, RPNQ0007) and 50 nM [3H] tafamidis (Moravek, MT-1003033), plus varying concentrations of test compound or vehicle. Briefly, assays were prepared at room temperature in 384-well plates (Corning, 3767) containing 200 nl_ of test compound in DMSO (or DMSO as vehicle). The plates also contained wells with a saturating concentration of unlabeled ligand (200 nl_ of 3 mM tafamidis or 3 mM thyroxine in DMSO) for measuring non-specific binding. Assays were initiated by addition of 20 mI of […] TTR protein in assay buffer (10 mM Tris pH 7.5, 150 mM NaCI, 0.25% Triton X-100) and 20 mI_ of 150 nM [3H] tafamidis in assay buffer. The plates were incubated 1 hour prior to addition of 20 mI_ of 1.25 mg/ml_ SPA beads diluted in assay buffer. The assays were incubated an additional 10 hours to allow binding to reach equilibrium and the amount of receptor-ligand complex was determined by liquid scintillation counting using a 1450 Microbeta Trilux (Wallac). The % effect values for test wells were calculated based on the total binding (vehicle, 0% effect) and non-specific binding (unlabeled ligand, 100% effect) wells on each assay plate. ECso values were then determined using a standard 4 parameter logistic dose response equation.

[2] = target: T1, Transthyretin; assay: KD Determination by SPR
Description: Affinity and Reversibility -The binding affinity and kinetics of binding were measured using Surface Plasmon Resonance based binding assay. These experiments were carried out on Bruker SPR MASS-1 and MASS-2 instruments. There was no significant difference in results obtained on both these instruments. Bap-tagged TTR protein was captured on a Streptavidin coated sensor chip to achieve about 2000 to 3000 RUs of surface density. All the samples were prepared in buffer consisting of 10 mM Sodium Phosphate, pH 7.6, 100 mM KCI, 0.005% Tween-20 and 2% DMSO. The same buffer was used as the running buffer during the experiments. Compound samples were injected at a flow rate of 30 pL/min for 90 seconds of association time followed by at least 240 seconds of dissociation period. The compounds were tested in a concentration series consisting of at least 6 samples (usually 10) made with 5-fold, 3-fold, or 2-fold dilution. The highest concentration was […] or selected based on compound binding affinity observed in a previous experiment. […] The data were processed and analyzed using Bruker Analyzer and Scrubber to calculate binding affinities by fitting the data to 1:1 binding model. […] Tafamidis binds to TTR in a reversible manner with calculated residence time of around 40 seconds.

Structure (SMILES)	EC50 [1] [nM]	Kd [2] [nM]
Cc1n[nH]c(C)c1-c1cccc2ncsc12 [WO2022112919, Example 2]	14	17
COc1cc(-c2c(C)n[nH]c2C)c2ncsc2c1 [WO2022112919, Example 14]	25	–
Cc1[nH]nc(C#N)c1-c1ccc(C)c2scnc12 [WO2022112919, Example 8]	20	–
Cc1n[nH]c(C)c1-c1ccnc2scnc12 [WO2022112919, Example 19]	–	39
Cc1n[nH]c(C)c1-c1cc(F)cc2scnc12 [WO2022112919, Example 15]	21	–
Cc1[nH]nc(C#N)c1-c1ccc(C(F)(F)F)c2scnc12 [WO2022112919, Example 9]	36	–
Cc1cc(-c2c(C)n[nH]c2C)c2ncsc2c1 [WO2022112919, Example 13]	21	–
